Results on 1 cell line are retold here after the supplement of paper PMC10307832.

Common to all, as to assay: relative viability (nuclei count vs DMSO), 5 days (fraction); higher = more cells survive
Compound in test [1]: C1/C(=C\C2=CC=CS2)/C(=O)/C(=C/C3=CC=CS3)/C1 + CC1(C)CCC(c2ccc(Cl)cc2)=C(CN2CCN(c3ccc(C(=O)NS(=O)(=O)c4ccc(N[C@H](CCN5CCOCC5)CSc5ccccc5)c(S(=O)(=O)C(F)(F)F)c4)cc3)CC2)C1 [Navitoclax] (partner 0.5 µM)
Summed up:
(§1)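 Lung cancer cell lines in 1536-well plates got either a single drug or a fixed anchor-drug dose together with five library-drug doses (not always all listed) in √10 steps, by pin tool, on the day after seeding. Nuclei were counted after 5 days, and relative viability is the treated-to-vehicle ratio of nuclei counts. Values are medians of duplicate plates.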

Compound in test [2]: C1/C(=C\C2=CC=CS2)/C(=O)/C(=C/C3=CC=CS3)/C1 + C[C@@H](Oc1cc(-c2cnn(C3CCNCC3)c2)cnc1N)c1c(Cl)ccc(F)c1Cl [Crizotinib] (partner 1 µM)
The gist of the method: as §1

Compound in the test “TPCA-1 + Alpelisib”: C1=CC(=CC=C1C2=CC(=C(S2)NC(=O)N)C(=O)N)F [TPCA-1] + Cc1nc(NC(=O)N2CCC[C@H]2C(N)=O)sc1-c1ccnc(C(C)(C)C(F)(F)F)c1 [Alpelisib] (partner 2 µM)
The gist of the method: as §1

Compound in the test “TPCA-1 + Lapatinib”: C1=CC(=CC=C1C2=CC(=C(S2)NC(=O)N)C(=O)N)F [TPCA-1] + CS(=O)(=O)CCNCc1ccc(-c2ccc3ncnc(Nc4ccc(OCc5cccc(F)c5)c(Cl)c4)c3c2)o1 [Lapatinib] (partner 2 µM)
The gist of the method: as §1

Take UMC-11: the relative viability in test [1] (first compound 0.2 µM) was 0.302; in test [1] (first compound 0.6325 µM) it was 0.362; in test [1] (first compound 2 µM) it was 0.307; in test [1] (first compound 20 µM), 0.307; in test [2] (first compound 0.2 µM) it was 0.62; in test [2] (first compound 0.6325 µM), 0.685. The relative viability in test [2] (first compound 2 µM) stood at 0.687; in test [2] (first compound 20 µM) it was 0.571; with TPCA-1 + Alpelisib (first compound 0.04 µM), 0.988; with TPCA-1 + Alpelisib (first compound 0.1265 µM), 0.946; with TPCA-1 + Alpelisib (first compound 0.4 µM), 1.05; with TPCA-1 + Alpelisib (first compound 1.265 µM) it was 0.96. The relative viability with TPCA-1 + Alpelisib (first compound 4 µM) came out at 0.731; with TPCA-1 + Lapatinib (first compound 0.04 µM), 1.18; with TPCA-1 + Lapatinib (first compound 0.1265 µM), 0.754; in the test with TPCA-1 + Lapatinib (first compound 0.4 µM), 0.69; with TPCA-1 + Lapatinib (first compound 1.265 µM) it was 0.956; with TPCA-1 + Lapatinib (first compound 4 µM) it was 0.178.
